Measurements reported in patent US10981906B2, “Substituted pyrrolopyridine JAK inhibitors and methods of making and using the same” (ACLARIS THERAPEUTICS, INC., priority 2017, dated 2021).
pIC50: −log10 of the molar value. Structures can show the parent of a compound that is named as a salt. Where two headings read alike, the source gives them in different places.

Key:
JAK1 = JAK1 (Homo sapiens (Human), UniProt P23458); assay: JAK1 enzyme activity assay (Thermo Fisher SelectScreen Z-lyte); type: biochemical; conditions: 1 hour kinase reaction, read-out: JAK1 Inhibition IC50
Procedure: The inhibitory potency of candidate compounds of JAK1 done at Thermo Fisher Scientific in their Selectscreen using a Z-lyte assay. The 2×JAK1/Tyr 06 mixture is prepared in 50 mM HEPES pH 6.5, 0.01% BRIJ-35, 10 mM MgCl2, 1 mM EGTA, 0.02% NaN3. The final 10 μL of the Kinase Reaction consists of 21.2-91.5 ng JAK1 and 2 μM Tyr 06 in 50 mM HEPES pH 7.0, 0.01% BRIJ-35, 10 mM MgCl2, 1 mM EGTA, 0.01% NaN3. After the 1 hour Kinase Reaction incubation, 5 μL of a 1:128 dilution of Development Reagent is added.
(§1) Background signal is defined in the absence of enzyme and uninhibited signal is defined in the presence of vehicle (2% DMSO) alone. Compounds were evaluated in an 11 point dose-response ranging from […] to 0.34 nM. IC50 values of compounds are determined using a 4 parameter logistical fit of emission ratio as a function of the concentration of compound.

JAK3 (a.a. 781-1124) = JAK3 (a.a. 781-1124) (Homo sapiens (Human), UniProt P52333); assay: JAK3 enzyme activity assay (SRCtide phosphorylation, Caliper); type: biochemical; conditions: 2.5 nM JAK3, 1 μM SRCtide, 1 uM ATP, 40 minutes; read-out: JAK3 Inhibition IC50
Procedure: The activity of JAK3 (a.a. 781-1124, ThermoFisher) was quantified by measuring the phosphorylation of SRCtide (FAM-GEEPLYWSFPAKKK-NH2). Kinase reactions were run in a 384-well Greiner plate with 2% final DMSO concentration under the buffer conditions of 20 mM HEPES, pH 7.5, 10 mM MgCl2, 0.01% BSA, and 0.0005% Tween-20. The kinase reaction components were 2.5 nM JAK3, 1 μM SRCtide peptide and 1 uM ATP. Examples were tested in dose-response starting at 2 μM (11 concentrations, 3-fold serial dilution, duplicate reactions). The reactions were incubated at room temperature for 40 minutes, then stopped by adding a 1:1 volume of 30 mM EDTA in 20 mM HEPES, pH 7.5 (15 mM EDTA final). After the reaction was stopped, the phosphorylated and unphosphorylated peptides were separated and quantified using a Caliper LC3000/EZ-Reader system and HTS Well Analyzer Software (Caliper, A PerkinElmer Company, Hopkinton, Mass.). GraFit (Erithacus Software Ltd., Horley, U.K.) was used to calculate inhibitor potency by fitting dose-response data to the 4-parameter logistical IC50 equation.
as §1

[1] = system: IFNγ stimulated STAT1 phosphorylation on Tyr701 (JAK1/2); assay: JAK1/2 cellular target modulation: IFNγ stimulated phospho-STAT1 in PBMC; type: cell-based; conditions: IFNγ 10 ng/ml, 1 hour compound preincubation, read-out: Infγ-STAT1 IC50
From the text: (§2) Target modulation was based upon the ability of a compound to inhibit JAK isoform specific phosphorylation of selected substrates. IL-2 stimulated STAT5 phosphorylation on Tyr694 was used to assess JAK1/3 compound selectivity. GM-CSF stimulated STAT5 phosphorylation on Tyr694 was used to assess JAK2 compound selectivity. IFNγ stimulated STAT1 phosphorylation on Tyr701 was used to assess JAK1/2 compound selectivity. For all three assays, human PBMC from frozen stocks were thawed, pelleted, resuspended in complete media (90% RPMI, 10% heat inactivated FBS, 10 mM HEPES, 47 μM 2-ME, pen/strep) and placed in wells of a 96 well V-bottom plate at 200,000 per well in 120 μl complete media. Compounds were added as 15 μl per well of 10× working stock solutions in complete media with 1% DMSO (or medium with 1% DMSO for controls) and placed on a plate shaker in a 37° C. incubator with 5% CO2 for 1 hour with gentle shaking (setting of 3). Stimulation used the addition of soluble cytokines. For the JAK1/3 phospho-STAT5 assay, 15 μl of 10× working stock recombinant human IL-2 was added to a final concentration of 25 ng/ml. For the JAK2 phospho-STAT5 assay, 15 μl of 10× working stock recombinant human GM-CSF was added to a final concentration of 5 ng/ml. For the JAK1/2 phospho-STAT1 assay, 15 μl of 10× working stock of recombinant human IFNγ was added to a final concentration of 10 ng/ml. Plates were then placed back on the plate shaker in the incubator for an additional 5, 5 and 10 minutes respectively upon which the plates were removed from the incubator, sealed with a plate sealer and the cells pelleted at 400×g for 5 minutes. After pelleting, the media was removed by aspiration and the cells were lysed in ELISA specific cell lysis buffer. The levels of phospho-STAT5 were determined using a Phospho (Tyr694)/Total STAT5a,b Whole Cell Lysate kit from Meso Scale Discovery. Levels of phospho-STAT1 were determined using a CST-PathScan Phospho-STAT1 (Tyr701) Sandwich ELISA kit.

[2] = system: IL-2 stimulated STAT5 phosphorylation on Tyr694 (JAK1/3); assay: JAK1/3 cellular target modulation: IL-2 stimulated phospho-STAT5 in PBMC; type: cell-based; conditions: IL-2 25 ng/ml, 1 hour compound preincubation, read-out: IL2-STAT5 Inhibition IC50
From the text: as §2

Sequence of JAK1 (P23458 whole entry): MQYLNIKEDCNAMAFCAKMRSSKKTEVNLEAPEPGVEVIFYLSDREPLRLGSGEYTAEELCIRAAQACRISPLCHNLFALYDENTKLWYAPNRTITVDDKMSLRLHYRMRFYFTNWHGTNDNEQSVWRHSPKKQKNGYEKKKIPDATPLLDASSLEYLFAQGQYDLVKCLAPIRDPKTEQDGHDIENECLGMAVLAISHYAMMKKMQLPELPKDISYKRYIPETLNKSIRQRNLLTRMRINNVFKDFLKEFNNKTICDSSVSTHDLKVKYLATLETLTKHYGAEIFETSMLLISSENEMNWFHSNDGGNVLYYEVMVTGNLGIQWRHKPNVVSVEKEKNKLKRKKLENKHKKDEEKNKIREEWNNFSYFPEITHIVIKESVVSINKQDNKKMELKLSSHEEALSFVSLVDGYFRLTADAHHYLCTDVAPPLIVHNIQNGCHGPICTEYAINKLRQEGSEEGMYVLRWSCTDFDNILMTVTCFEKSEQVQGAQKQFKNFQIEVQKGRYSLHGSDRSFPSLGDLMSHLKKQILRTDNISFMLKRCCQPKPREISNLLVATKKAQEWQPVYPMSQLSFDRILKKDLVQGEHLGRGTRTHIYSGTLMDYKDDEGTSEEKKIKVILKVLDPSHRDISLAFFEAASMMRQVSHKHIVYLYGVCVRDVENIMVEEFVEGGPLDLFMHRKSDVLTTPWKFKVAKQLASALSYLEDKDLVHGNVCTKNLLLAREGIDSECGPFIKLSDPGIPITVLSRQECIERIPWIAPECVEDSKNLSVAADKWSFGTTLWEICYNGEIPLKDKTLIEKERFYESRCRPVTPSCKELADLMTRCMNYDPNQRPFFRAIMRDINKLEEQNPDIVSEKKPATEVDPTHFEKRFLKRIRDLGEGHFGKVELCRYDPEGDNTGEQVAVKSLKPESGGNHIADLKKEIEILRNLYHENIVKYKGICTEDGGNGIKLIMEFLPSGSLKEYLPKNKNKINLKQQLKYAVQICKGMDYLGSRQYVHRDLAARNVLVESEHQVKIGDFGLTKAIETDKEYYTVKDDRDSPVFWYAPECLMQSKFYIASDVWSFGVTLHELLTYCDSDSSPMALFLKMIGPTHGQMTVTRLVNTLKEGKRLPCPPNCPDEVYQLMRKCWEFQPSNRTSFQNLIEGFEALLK
Sequence of JAK3 (a.a. 781-1124) (P52333 781-1124): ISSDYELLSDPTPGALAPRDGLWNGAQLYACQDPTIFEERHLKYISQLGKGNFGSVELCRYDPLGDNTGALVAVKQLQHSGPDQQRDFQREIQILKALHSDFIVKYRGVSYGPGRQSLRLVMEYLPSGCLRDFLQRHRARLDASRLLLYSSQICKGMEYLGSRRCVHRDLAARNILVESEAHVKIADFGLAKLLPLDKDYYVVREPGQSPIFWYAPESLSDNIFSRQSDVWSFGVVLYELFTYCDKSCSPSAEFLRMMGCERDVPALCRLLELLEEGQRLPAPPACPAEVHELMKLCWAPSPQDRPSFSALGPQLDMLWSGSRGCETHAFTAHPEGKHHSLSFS

CCOC(=O)c1cnc2[nH]ccc2c1N[C@H]1CN(C(=O)CC#N)CC[C@H]1C [Example 3, ethyl 4-(((3R,4R)-1-(2-cyanoacetyl)-4-methylpiperidin-3-yl)amino)-1H-pyrrolo[2,3-b]pyridine-5-carboxylate]
pIC50 (JAK1): ≥ 8.00 | pIC50 (JAK3 (a.a. 781-1124)): ≥ 8.00 | pIC50 ([1]; Homo sapiens, PBMC): 6.00 to 7.00 | pIC50 ([2]; Homo sapiens, PBMC): ≥ 7.00

CCOC(=O)c1cnc2[nH]ccc2c1N[C@@H]1CCCN(C(=O)C(C)(C)C#N)C1 [Example 144, ethyl (R)-4-((1-(2-cyano-2-methylpropanoyl)piperidin-3-yl)amino)-1H-pyrrolo[2,3-b]pyridine-5-carboxylate]
pIC50 (JAK1): 7.00 to 8.00 | pIC50 (JAK3 (a.a. 781-1124)): 7.00 to 8.00 | pIC50 ([1]; Homo sapiens, PBMC): 6.00 to 7.00 | pIC50 ([2]; Homo sapiens, PBMC): 6.00 to 7.00

C[C@@H]1CCN(C(=O)CC#N)C[C@@H]1Nc1c(C(=O)O)cnc2[nH]ccc12 [Example 120, 4-(((3R,4R)-1-(2-cyanoacetyl)-4-methylpiperidin-3-yl)amino)-1H-pyrrolo[2,3-b]pyridine-5-carboxylic acid trifluoroacetic acid Salt]
pIC50 (JAK1): 6.00 to 7.00 | pIC50 (JAK3 (a.a. 781-1124)): 6.00 to 7.00 | pIC50 ([2]; Homo sapiens, PBMC): < 6.00

CCOC(=O)c1cnc2[nH]ccc2c1N(C)[C@H]1CC[C@H](CS(=O)(=O)NC)CC1 [Example 94, ethyl 4-(methyl((1r,4r)-4-((N-methylsulfamoyl)methyl)cyclohexyl)amino)-1H-pyrrolo[2,3-b]pyridine-5-carboxylate]
pIC50 (JAK3 (a.a. 781-1124)): 7.00 to 8.00

CCOC(=O)c1cnc2[nH]ccc2c1N[C@@H]1CCC[C@@H](CCC#N)C1 (single isomer, unassigned; enantiomer 1) [Example 137, (trans) ethyl 4-((3-(2-cyanoethyl)cyclohexyl)amino)-1H-pyrrolo[2,3-b]pyridine-5-carboxylate enantiomer 1]
pIC50 (JAK1): ≥ 8.00 | pIC50 (JAK3 (a.a. 781-1124)): ≥ 8.00 | pIC50 ([1]; Homo sapiens, PBMC): < 6.00 | pIC50 ([2]; Homo sapiens, PBMC): ≥ 7.00

N#CCC[C@H]1CCC[C@H](Nc2c(C(=O)O)cnc3[nH]ccc23)C1 [Example 147, 4-(((1S,3R)-3-(2-cyanoethyl)cyclohexyl)amino)-1H-pyrrolo[2,3-b]pyridine-5-carboxylic acid]
pIC50 (JAK1): 6.00 to 7.00 | pIC50 (JAK3 (a.a. 781-1124)): 6.00 to 7.00 | pIC50 ([1]; Homo sapiens, PBMC): < 6.00 | pIC50 ([2]; Homo sapiens, PBMC): 6.00 to 7.00

CCOC(=O)c1cnc2[nH]ccc2c1NC1CCC(CCC#N)C1 (single isomer, unassigned; stereoisomer 2) [Example 155, Ethyl 4-((3-(2-cyanoethyl)cyclopentyl)amino)-1H-pyrrolo[2,3-b]pyridine-5-carboxylate, single stereoisomer 2]
pIC50 (JAK1): 6.00 to 7.00 | pIC50 (JAK3 (a.a. 781-1124)): 7.00 to 8.00 | pIC50 ([1]; human PBMC): < 6.00 | pIC50 ([2]; human PBMC): 6.00 to 7.00

CCOC(=O)c1cnc2[nH]ccc2c1N[C@@H]1CCCN(C(=O)C2(C#N)CC2)C1 [Example 128, ethyl (R)-4-((1-(1-cyanocyclopropane-1-carbonyl)piperidin-3-yl)amino)-1H-pyrrolo[2,3-b]pyridine-5-carboxylate]
pIC50 (JAK1): 7.00 to 8.00 | pIC50 (JAK3 (a.a. 781-1124)): ≥ 8.00 | pIC50 ([1]; Homo sapiens, PBMC): < 6.00 | pIC50 ([2]; Homo sapiens, PBMC): ≥ 7.00

CCOC(=O)c1cnc2[nH]ccc2c1N(C)[C@H]1CN(C(=O)CC#N)CC[C@H]1C [Example 1, ethyl 4-(((3R,4R)-1-(2-cyanoacetyl)-4-methylpiperidin-3-yl)(methyl)amino)-1H-pyrrolo[2,3-b]pyridine-5-carboxylate]
pIC50 (JAK1): 7.00 to 8.00 | pIC50 (JAK3 (a.a. 781-1124)): 7.00 to 8.00 | pIC50 ([1]; Homo sapiens, PBMC): < 6.00 | pIC50 ([2]; Homo sapiens, PBMC): 6.00 to 7.00

CCCOC(=O)c1cnc2[nH]ccc2c1N[C@H]1CN(C(=O)CC#N)CC[C@H]1C [Example 125, propyl 4-(((3R,4R)-1-(2-cyanoacetyl)-4-methylpiperidin-3-yl)amino)-1H-pyrrolo[2,3-b]pyridine-5-carboxylate]
pIC50 (JAK1): ≥ 8.00 | pIC50 (JAK3 (a.a. 781-1124)): ≥ 8.00 | pIC50 ([1]; Homo sapiens, PBMC): 6.00 to 7.00 | pIC50 ([2]; Homo sapiens, PBMC): ≥ 7.00

CCOC(=O)c1cnc2[nH]ccc2c1N[C@H]1CCCN(C(=O)CC#N)C1 [Example 143, ethyl (S)-4-((1-(2-cyanoacetyl)piperidin-3-yl)amino)-1H-pyrrolo[2,3-b]pyridine-5-carboxylate]
pIC50 (JAK1): 6.00 to 7.00 | pIC50 (JAK3 (a.a. 781-1124)): 7.00 to 8.00 | pIC50 ([2]; Homo sapiens, PBMC): < 6.00

C[C@@H]1CCN(C(=O)CC#N)C[C@@H]1Nc1c(C(=O)OC(C)(C)C)cnc2[nH]ccc12 [Example 119, tert-butyl 4-(((3R,4R)-1-(2-cyanoacetyl)-4-methylpiperidin-3-yl)amino)-1H-pyrrolo[2,3-b]pyridine-5-carboxylate]
pIC50 (JAK1): 6.00 to 7.00 | pIC50 (JAK3 (a.a. 781-1124)): 6.00 to 7.00 | pIC50 ([2]; Homo sapiens, PBMC): < 6.00

COCCOC(=O)c1cnc2[nH]ccc2c1N[C@H]1CCC[C@@H](CCC#N)C1 (single isomer, unassigned; enantiomer 1) [Example 149, cis-2-methoxyethyl 4-((3-(2-cyanoethyl)cyclohexyl)amino)-1H-pyrrolo[2,3-b]pyridine-5-carboxylate, enantiomer 1]
pIC50 (JAK1): 6.00 to 7.00 | pIC50 (JAK3 (a.a. 781-1124)): 7.00 to 8.00 | pIC50 ([1]; Homo sapiens, PBMC): < 6.00 | pIC50 ([2]; Homo sapiens, PBMC): 6.00 to 7.00

CCOC(=O)c1cnc2[nH]ccc2c1N(C)[C@H]1CC[C@H](O)C1 (single isomer, unassigned) [Example 68A, (trans)-Ethyl 4-((-3-hydroxycyclopentyl)(methyl)amino)-1H-pyrrolo[2,3-b] pyridine-5-carboxylate]
pIC50 (JAK1): 6.00 to 7.00 | pIC50 (JAK3 (a.a. 781-1124)): 6.00 to 7.00 | pIC50 ([2]; Homo sapiens, PBMC): < 6.00

N#CCC(=O)N1CCC[C@@H](Nc2c(C(=O)O)cnc3[nH]ccc23)C1 [Example 121, (R)-4-((1-(2-cyanoacetyl)piperidin-3-yl)amino)-1H-pyrrolo[2,3-b]pyridine-5-carboxylic acid trifluoroacetic acid Salt]
pIC50 (JAK1): 6.00 to 7.00 | pIC50 (JAK3 (a.a. 781-1124)): 6.00 to 7.00 | pIC50 ([2]; Homo sapiens, PBMC): < 6.00

CCOC(=O)c1cnc2[nH]ccc2c1N(C)[C@H]1CC[C@H](OC(=O)CC#N)C1 (single isomer, unassigned) [Example 69, (trans)-ethyl 4-((3-(2-cyanoacetoxy)cyclopentyl)(methyl)amino)-1H-pyrrolo[2,3-b]pyridine-5-carboxylate]
pIC50 (JAK1): 6.00 to 7.00 | pIC50 (JAK3 (a.a. 781-1124)): 6.00 to 7.00 | pIC50 ([2]; human PBMC): < 6.00

CCOC(=O)c1cnc2[nH]ccc2c1N[C@@H]1CCCN(C(=O)[C@@H]2CC2(F)F)C1 [Example 156, ethyl 4-(((R)-1-((S)-2,2-difluorocyclopropane-1-carbonyl)piperidin-3-yl)amino)-1H-pyrrolo[2,3-b]pyridine-5-carboxylate]
pIC50 (JAK3 (a.a. 781-1124)): 7.00 to 8.00 | pIC50 ([2]; Homo sapiens, PBMC): 6.00 to 7.00

CCOC(=O)c1cnc2[nH]ccc2c1N(C)[C@@H]1CC[C@@H](O)C1 (single isomer, unassigned) [Example 68B, (trans)-Ethyl 4-((-3-hydroxycyclopentyl)(methyl)amino)-1H-pyrrolo[2,3-b]pyridine-5-carboxylate]
pIC50 (JAK1): 6.00 to 7.00 | pIC50 (JAK3 (a.a. 781-1124)): 7.00 to 8.00 | pIC50 ([2]; Homo sapiens, PBMC): < 6.00
